For 14 molecules, IC50 results are on record in patent publication EP4786483A1, “AURISTATIN DERIVATIVE AND ANTIBODY-DRUG CONJUGATE THEREOF” (priority 2023, dated 2025).

Structures are written as SMILES. Where two headings read alike, the source gives them in different places. Non-standard residues stand in square brackets, D forms with d. Residues, ends and D or L forms follow the SMILES beside them. *: point of attachment. Dolaproine = CO[C@@H]([C@@H]1CCCN1)[C@@H](C)C(=O)O; Dil = CC[C@H](C)[C@H](NC)[C@@H](CC(=O)O)OC; Phe(3-NH2) = Nc1cccc(C[C@H](N)C(=O)O)c1; NMe2Val = CC(C)[C@@H](C(=O)*)N(C)C

Format in all cases: cell-based
Assay [1] concerns CD34^+ hematopoietic stem/progenitor cells. Briefly: Hematologic toxicity of compounds (CD34+ HSC viability, CTG). The settings on record: 240 h; cytotoxic drugs; treatment for 10 days; CTG cell viability. On the procedure:
Experimental objective: The effects of cytotoxic drugs on the differentiation and development of CD34^+ hematopoietic stem/progenitor cells into the megakaryocytic lineage were investigated, so as to evaluate their potential hematologic toxicity of causing thrombocytopenia.
Experimental design: After resuscitation, bone marrow-mobilized peripheral blood-derived HSCs were seeded at 2000 cells/well/180 µL in an ultra-low attachment 96-well round-bottom plate and stabilized for 4 h. The cells were treated with compounds by performing a 5-fold gradient dilution starting from the highest dose of 1 µM, resulting in a total of 9 concentration points, and this treatment was maintained continuously for 10 days. Cell viability was detected using the CTG reagent (CellTiter-Glo luminescent cell viability detection kit, manufacturer: Promega, Cat. No.: G7571). Table 2. Hematologic toxicity test results of cytotoxic drugs

Assay [2] has as its system Human gastric cancer cells NCI-N87. Description: Cytotoxicity test for compounds (CellTiter-Glo cell proliferation inhibition). The settings on record: Homo sapiens, NCI-N87, 72 h. On the procedure: (§1) Biological Test Example 1: Cytotoxicity Test for Compounds
(§2) • 96-well clear flat-bottom white plate (Corning, #3610) • RPMI1640 culture medium (Gibco, #A10491-01) • Fetal Bovine Serum (Sigma-Aldrich, #F8687-500ML) • CellTiter-Glo® Luminescent Cell Viability Assay (Promega, # G7572/G7571)
(§3) Human gastric cancer cells NCI-N87 (ATCC, Cat. No.: CRL-5822), human breast cancer cells MDA-MB-468 (Cell Bank of the Committee for Type Culture Collection of the Chinese Academy of Sciences, Cat. No.: TCHu136), and human breast cancer cells KPL-4 (Nanjing Cobioer Biosciences Co., Ltd., Cat. No.: CBP60379) were washed with PBS and digested with 0.25% Trypsin-EDTA trypsin for about 3-10 min. The digestion was terminated with a complete cell culture medium. The cells were centrifuged at 1000 rpm for 5 min, and the supernatant was discarded. The cells were resuspended in a complete cell culture medium. The cell number was counted using a cell counter, and the cells were adjusted to the desired density. 90.0 µL of the cell suspension was added to each well at 3000 cells/well. The cell plate was incubated in a cell incubator at 37°C with 5% CO2 overnight.
(§4) In the experiment, a DMSO control group and test sample groups were set. The cell plate was removed from the incubator to observe cell adherence. After the cells adhered, 10.00 µL of the sample (starting from a final concentration of 10 µM, 5-fold dilution, 9 concentrations) was added to each well. After the mixture was gently shaken uniformly, the plate was incubated in the incubator.
(§5) After 3 days of incubation, 100.0 µL/well of CellTiter-Glo™ (Promega, Cat. No.: G7572/G7571) working solution was added. The plate was shaken on a thermostatic shaker to lyse the cells. After 10 min, the plate was read on a microplate reader.
(§6) Data analysis: GraphPad Prism 8.0 software was used to plot a graph with the Log value of the sample concentration as the abscissa and the Inhibition% as the ordinate. The data were analyzed by Nonlinear regression (curve fit) to obtain the IC50 value of each test sample. Table 1. Inhibition activity of compounds of the present disclosure on cell proliferation
(ATP-based viability assays read luminescence as a measure of living cells.)

In assay [3] the test system is human breast cancer cells KPL-4. The description is as above. The settings on record: Homo sapiens, KPL4, 72 h. On the procedure:
as §1, §2, §3, §4, §5, §6

For assay [4], the system named is human breast cancer cells MDA-MB-468. The description is as above. To be noted: Homo sapiens, MDA-MB-468, 72 h. The method, then: as §1, §2, §3, §4, §5, §6
The mark [5] stands for this setting: 3 days of incubation, CellTiter-Glo, read-out: NCI-87/IC50.
Where [6] appears, read: 3 days of incubation, CellTiter-Glo, read-out: KPL-4/IC50.
Where [7] appears, read: 3 days of incubation, CellTiter-Glo, read-out: MDA-MD-468/IC50.

The molecule `CC[C@H](C)[C@@H]([C@@H](CC(=O)N1CCC[C@H]1[C@H](OC)[C@@H](C)C(=O)N(C)CCc1cccc(N)c1)OC)N(C)C(=O)[C@@H](NC(=O)[C@H](C(C)C)N(C)C)C(C)C` [WO2023081230A1 Compound 1, reference compound] showed an IC50 in assay [1] of 17 pM.

In the case of `CC[C@H](C)[C@@H]([C@@H](CC(=O)N1CCC[C@H]1[C@H](OC)[C@@H](C)C(=O)OCCc1cccc(N)c1)OC)N(C)C(=O)[C@@H](NC(=O)[C@H](C(C)C)N(C)C)C(C)C` [Example 13], the values for the IC50 in assay [2] (read-out: NCI-87/IC50 (nM)), in assay [3] (read-out: KPL-4/IC50 (nM)) and in assay [4] (read-out: MDA-MD-468/IC50 (nM)) were 0.58 nM, 0.18 nM and 0.56 nM, respectively.

Turning to `C=C(C)C(Cc1cccc(N)c1)OC(=O)[C@H](C)[C@@H](OC)[C@@H]1CCCN1C(=O)C[C@@H](OC)[C@H]([C@@H](C)CC)N(C)C(=O)[C@@H](NC(=O)[C@H](C(C)C)N(C)C)C(C)C` (stereo partly shown) [Example 31], the IC50 in assay [2] (read-out: NCI-87/IC50 (nM)) is under 0.0256 nM; in assay [3] (read-out: KPL-4/IC50 (nM)), under 0.0256 nM; in assay [4] (read-out: MDA-MD-468/IC50 (nM)) it was 0.11 nM.

Regarding `CC[C@H](C)[C@@H]([C@@H](CC(=O)N1CCC[C@H]1[C@H](OC)[C@@H](C)C(=O)N1CCS(=O)(=O)[C@@H](c2cccc(N)c2)C1)OC)N(C)C(=O)[C@@H](NC(=O)[C@H](C(C)C)N(C)C)C(C)C` (single isomer, unassigned) [Example 61-P2], the IC50 amounted to 56.3 nM in assay [2] (setting [5]), 24.3 nM in assay [3] (setting [6]) and 13.3 nM in assay [4] (setting [7]).

With `CC[C@H](C)[C@@H]([C@@H](CC(=O)N1CCC[C@H]1[C@H](OC)[C@@H](C)C(=O)O[C@H](CF)Cc1cccc(N)c1)OC)N(C)C(=O)[C@@H](NC(=O)[C@H](C(C)C)N(C)C)C(C)C` [Example 24], the IC50 in assay [2] (read-out: NCI-87/IC50 (nM)), in assay [3] (read-out: KPL-4/IC50 (nM)) and in assay [4] (read-out: MDA-MD-468/IC50 (nM)) was under 0.0256 nM in each case.

As for `C=CC(Cc1cccc(N)c1)OC(=O)[C@H](C)[C@@H](OC)[C@@H]1CCCN1C(=O)C[C@@H](OC)[C@H]([C@@H](C)CC)N(C)C(=O)[C@@H](NC(=O)[C@H](C(C)C)N(C)C)C(C)C` (stereo partly shown) [Example 19], the IC50 in assay [2] (read-out: NCI-87/IC50 (nM)), in assay [3] (read-out: KPL-4/IC50 (nM)) and in assay [4] (read-out: MDA-MD-468/IC50 (nM)) was under 0.0256 nM in each case.

With `CC[C@H](C)[C@@H]([C@@H](CC(=O)N1CCC[C@H]1[C@H](OC)[C@@H](C)C(=O)N[C@H](CCl)Cc1cccc(N)c1)OC)N(C)C(=O)[C@@H](NC(=O)[C@H](C(C)C)N(C)C)C(C)C` [Example 1, (S)-N-((3R,4S,5S)-1-((S)-2-((1R,2R)-3-(((S)-1-(3-aminophenyl)-3-chloropropan-2-yl)amino)-1-methoxy-2-methyl-3-oxopropyl)pyrrolidin-1-yl)-3-methoxy-5-methyl-1-oxoheptan-4-yl)-2-((S)-2-(dimethylamino)-3-methylbutanamido)-N,3-dimethylbutanamide], the IC50 in assay [2] (setting [5]) is 0.74 nM; in assay [3] (setting [6]), 0.41 nM; in assay [4] (setting [7]) it was 0.63 nM.

Regarding `CC[C@H](C)[C@@H]([C@@H](CC(=O)N1CCC[C@H]1[C@H](OC)[C@@H](C)C(=O)N[C@@H](Cc1cccc(N)c1)C(=O)NC)OC)N(C)C(=O)[C@@H](NC(=O)[C@H](C(C)C)N(C)C)C(C)C` [Example 4, (S)-N-((3R,4S,5S)-1-((S)-2-((1R,2R)-3-(((S)-3-(3-aminophenyl)-1-(methylamino)-1-oxopropan-2-yl)amino)-1-methoxy-2-methyl-3-oxopropyl)pyrrolidin-1-yl)-3-methoxy-5-methyl-1-oxoheptan-4-yl)-2-((S)-2-(dimethylamino)-3-methylbutanamido)-N,3-dimethylbutanamide] (NMe2Val-V[Dil][Dolaproine][Phe(3-NH2)]-NHMe), the IC50 in assay [2] (setting [5]) turned out to be 14.7 nM; in assay [3] (setting [6]), 5.26 nM; in assay [4] (setting [7]), 6.12 nM.

For the molecule `C#C[C@H](Cc1cccc(N)c1)NC(=O)[C@H](C)[C@@H](OC)[C@@H]1CCCN1C(=O)C[C@@H](OC)[C@H]([C@@H](C)CC)N(C)C(=O)[C@@H](NC(=O)[C@H](C(C)C)N(C)C)C(C)C` [Example 2, (S)-N-((3R,4S,5S)-1-((S)-2-((1R,2R)-3-(((S)-1-(3-aminophenyl)-but-3-yn-2-yl)amino)-1-methoxy-2-methyl-3-oxopropyl)pyrrolidin-1-yl)-3-methoxy-5-methyl-1-oxoheptan-4-yl)-2-((S)-2-(dimethylamino)-3-methylbutanamido)-N,3-dimethylbutanamide], the figures for the IC50 in assay [2] (setting [5]), in assay [3] (setting [6]) and in assay [4] (setting [7]) were 0.51 nM, 0.21 nM and 0.36 nM, respectively.

`CC[C@H](C)[C@@H]([C@@H](CC(=O)N1CCC[C@H]1[C@H](OC)[C@@H](C)C(=O)N1CCSC(c2cccc(N)c2)C1)OC)N(C)C(=O)[C@@H](NC(=O)[C@H](C(C)C)N(C)C)C(C)C` (single isomer, unassigned) [Example 60-P2]: the IC50 in assay [2] (setting [5]) was 0.71 nM; in assay [3] (setting [6]), 0.6 nM; in assay [4] (setting [7]), 1.01 nM.

Consider `CC[C@H](C)[C@@H]([C@@H](CC(=O)N1CCC[C@H]1[C@H](OC)[C@@H](C)C(=O)N[C@@H](Cc1cccc(N)c1)C(N)=O)OC)N(C)C(=O)[C@@H](NC(=O)[C@H](C(C)C)N(C)C)C(C)C` [Example 3, (S)-N-((3R,4S,5S)-1-((S)-2-((1R,2R)-3-(((S)-1-amino-3-(3-aminophenyl)-1-oxopropan-2-yl)amino)-1-methoxy-2-methyl-3-oxopropyl)pyrrolidin-1-yl)-3-methoxy-5-methyl-1-oxoheptan-4-yl)-2-((S)-2-(dimethylamino)-3-methylbutanamido)-N,3-dimethylbutanamide] (NMe2Val-V[Dil][Dolaproine][Phe(3-NH2)]-NH2), for which the IC50 was 38.4 nM in assay [2] (setting [5]), 18.9 nM in assay [3] (setting [6]) and 25.1 nM in assay [4] (setting [7]).

For `CC[C@H](C)[C@@H]([C@@H](CC(=O)N1CCC[C@H]1[C@H](OC)[C@@H](C)C(=O)O[C@H](CC#N)Cc1cccc(N)c1)OC)N(C)C(=O)[C@@H](NC(=O)[C@H](C(C)C)N(C)C)C(C)C` [Example 9, (S)-1-(3-aminophenyl)-3-cyanopropan-2-yl (2R,3R)-3-((S)-1-((3R,4S,5S)-4-((S)-2-((S)-2-(dimethylamino)-3-methylbutanamido)-N,3-dimethylbutanamido)-3-methoxy-5-methylheptanoyl)pyrrolidin-2-yl)-3-methoxy-2-methylpropanoate], the IC50 in assay [2] (setting [5]) came to 3.84 nM; in assay [3] (setting [6]), 0.74 nM; in assay [4] (setting [7]), 3.34 nM.

On to `C=CC[C@H](Cc1cccc(N)c1)OC(=O)[C@H](C)[C@@H](OC)[C@@H]1CCCN1C(=O)C[C@@H](OC)[C@H]([C@@H](C)CC)N(C)C(=O)[C@@H](NC(=O)[C@H](C(C)C)N(C)C)C(C)C` [Example 18], for which the IC50 in assay [2] (read-out: NCI-87/IC50 (nM)), in assay [3] (read-out: KPL-4/IC50 (nM)) and in assay [4] (read-out: MDA-MD-468/IC50 (nM)) was under 0.0256 nM in each case.

For the molecule `CC[C@H](C)[C@@H]([C@@H](CC(=O)N1CCC[C@H]1[C@H](OC)[C@@H](C)C(=O)O[C@@H](C)Cc1cccc(N)c1)OC)N(C)C(=O)[C@@H](NC(=O)[C@H](C(C)C)N(C)C)C(C)C` [Example 12, (S)-1-(3-aminophenyl)propan-2-yl (2R,3R)-3-((S)-1-((3R,4S,5S)-4-((S)-2-((S)-2-(dimethylamino)-3-methylbutanamido)-N,3-dimethylbutanamido)-3-methoxy-5-methylheptanoyl)pyrrolidin-2-yl)-3-methoxy-2-methylpropanoate], the figures for the IC50 in assay [2] (setting [5]), in assay [3] (setting [6]) and in assay [4] (setting [7]) were 4.05 nM, 1.42 nM and 11.8 nM, respectively.
